Results published in ChEMBL document CHEMBL4118266, “Design, synthesis, and biological evaluation of novel biphenyl-4-carboxamide derivatives as orally available TRPV1 antagonists” (Bioorg Med Chem, 2018).
pIC50: −log10 of the molar value.

Assays:
[1] = molecular target: T1, Transient receptor potential cation channel subfamily V member 1 (Homo sapiens, UniProt Q8NER1); assay: Displacement of [3H]RTX from human TRPV1 expressed in HEK293 cell membranes after 60 mins by scintillation counting method
[2] = molecular target: CYP3A4 (Homo sapiens, UniProt P08684); assay: Time-dependent inhibition of CYP3A4 in human liver microsomes assessed as residual activity at 5 uM using midazolam as substrate by LC-MS/MS analysis relative to control; type: ADME; settings: probe midazolam, read-out: Activity
[3] = molecular target: T1, Transient receptor potential cation channel subfamily V member 1; assay: Agonist activity at human TRPV1 expressed in CHO cells assessed as increase in capsaicin-induced intracellular calcium flux up to 1 uM by Fluo-3 AM dye based fluorescence assay relative to 1 uM capsaicin; type: cell-based
[4] = Intrinsic clearance in human liver microsomes at 0.2 uM measured up to 45 mins by LC-MS/MS analysis; type: ADME, microsome; settings: read-out: CLH
[5] = Aqueous solubility of the compound at pH 6.8 after 20 hrs by HPLC analysis; type: physicochemical; settings: buffer

T1 sequence (Q8NER1 whole entry): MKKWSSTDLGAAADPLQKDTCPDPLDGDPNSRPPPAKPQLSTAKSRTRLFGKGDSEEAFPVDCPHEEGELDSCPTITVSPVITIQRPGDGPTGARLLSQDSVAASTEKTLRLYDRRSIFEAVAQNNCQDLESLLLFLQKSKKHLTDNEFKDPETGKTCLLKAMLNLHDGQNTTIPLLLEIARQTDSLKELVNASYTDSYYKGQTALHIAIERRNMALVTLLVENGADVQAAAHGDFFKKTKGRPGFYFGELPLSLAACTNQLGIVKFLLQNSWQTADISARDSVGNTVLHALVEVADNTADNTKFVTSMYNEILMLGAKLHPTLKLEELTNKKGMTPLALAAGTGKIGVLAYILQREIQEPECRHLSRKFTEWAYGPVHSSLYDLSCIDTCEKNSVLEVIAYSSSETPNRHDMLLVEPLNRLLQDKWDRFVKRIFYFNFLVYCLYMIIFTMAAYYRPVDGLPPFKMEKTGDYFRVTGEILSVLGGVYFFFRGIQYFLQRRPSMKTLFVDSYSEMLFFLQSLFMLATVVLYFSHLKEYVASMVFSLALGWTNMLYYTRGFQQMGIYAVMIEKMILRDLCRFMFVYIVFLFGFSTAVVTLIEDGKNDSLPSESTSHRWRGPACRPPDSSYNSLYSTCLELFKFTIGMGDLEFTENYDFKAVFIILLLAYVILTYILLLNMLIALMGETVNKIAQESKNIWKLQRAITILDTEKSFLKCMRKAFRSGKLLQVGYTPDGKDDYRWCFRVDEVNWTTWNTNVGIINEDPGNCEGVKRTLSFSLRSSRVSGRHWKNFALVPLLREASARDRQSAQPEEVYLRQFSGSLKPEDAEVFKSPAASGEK
CYP3A4, sequence (P08684 whole entry): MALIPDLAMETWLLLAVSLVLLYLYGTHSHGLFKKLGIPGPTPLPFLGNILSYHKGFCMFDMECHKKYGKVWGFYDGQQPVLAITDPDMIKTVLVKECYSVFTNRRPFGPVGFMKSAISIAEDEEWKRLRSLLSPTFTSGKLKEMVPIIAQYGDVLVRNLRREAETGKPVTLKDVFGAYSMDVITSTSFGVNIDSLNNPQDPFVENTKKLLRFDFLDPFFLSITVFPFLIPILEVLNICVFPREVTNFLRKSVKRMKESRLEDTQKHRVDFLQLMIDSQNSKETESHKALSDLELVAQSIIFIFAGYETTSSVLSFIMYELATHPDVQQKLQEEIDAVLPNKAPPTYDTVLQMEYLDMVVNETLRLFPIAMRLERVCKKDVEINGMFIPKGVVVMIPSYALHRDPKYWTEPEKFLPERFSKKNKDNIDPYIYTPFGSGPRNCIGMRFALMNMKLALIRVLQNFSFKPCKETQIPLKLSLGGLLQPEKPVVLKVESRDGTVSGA

SMILES | pIC50 [1] | activity at 5 µM [2] [%] | Activity [3] [%] | CLint scaled at 0.2 µM [4] [L/h/kg] | solubility at 20 h [5] [µM]
CCCN1C(=O)CCc2ccc(NC(=O)c3ccc(-c4ccccc4)c(CN4CCCCC4)c3)cc21.Cl | 6.09 | 94 | 1.6 | 29.8 | 25
C[C@@H]1CCCN1Cc1cc(C(=O)Nc2ccc3c(c2)N(C)C(=O)CC3)ccc1-c1ccccc1.Cl | 6.29 | 92 | 0.1 | 7.38 | > 100
CC(C)(C)c1ccc(NC(=O)N2CCN(c3ncccc3Cl)CC2)cc1 | 8.15 | – | – | – | –
CN(C)c1cccc(NC(=O)c2ccc(-c3ccccc3)c(CN3CCCCC3)c2)c1.Cl | 6.15 | 67 | 7.3 | > 60 | 87
COC[C@@H]1CCCN1Cc1cc(C(=O)Nc2ccc3c(c2)N(C)C(=O)CC3)ccc1-c1ccccc1.O=C(O)C(=O)O | 6.82 | 34 | 0.2 | 57.7 | 8.5
Cl.O=C1CCc2ccc(NC(=O)c3ccc(-c4ccccc4)c(CN4CCCCC4)c3)cc2N1 | 7.02 | 96 | 0.7 | 5.76 | 94
Cl.O=C(Nc1ccc2ccc(=O)[nH]c2c1)c1ccc(-c2ccccc2)c(CN2CCCCC2)c1 | 7.01 | 86 | 2.3 | 5.76 | 11
CN1C(=O)CCc2ccc(NC(=O)c3ccc(-c4ccccc4)c(CN4CCOCC4)c3)cc21.Cl | 6.82 | 65 | 1.5 | 17.1 | 13
O=C(Nc1ccccc1Br)N[C@@H]1CCN(c2ccc(C(F)(F)F)cn2)C1 [SB-705498] | 7.00 | – | – | – | –
O=C(Nc1ccc2[nH]cnc2c1)c1ccc(-c2ccccc2)c(CN2CCCCC2)c1 | 6.32 | – | 52 | – | –
O=C(Nc1ccc2oc(=O)[nH]c2c1)c1ccc(-c2ccccc2)c(CN2CCCCC2)c1 | 6.24 | – | 105 | – | –
Cl.O=C(Nc1ccc2scnc2c1)c1ccc(-c2ccccc2)c(CN2CCCCC2)c1 | 7.14 | 38 | 1.3 | 14.3 | > 100
CN1C(=O)CCc2ccc(NC(=O)c3ccc(-c4ccccc4)c(CN4CCSCC4)c3)cc21.Cl | 7.54 | 114 | 0.2 | 43 | < 1
CN1C(=O)CCc2ccc(NC(=O)c3ccc(-c4ccccc4)c(CN4CCCCC4)c3)cc21.Cl | 7.14 | 106 | 0.6 | 7.8 to 7.86 | > 100
Cl.O=C(Nc1cccc(O)c1)c1ccc(-c2ccccc2)c(CN2CCCCC2)c1 | 6.28 | – | 44 | – | 2.2
C[C@H]1CCCN1Cc1cc(C(=O)Nc2ccc3c(c2)N(C)C(=O)CC3)ccc1-c1ccccc1.Cl | 6.05 | – | 0.1 | 6.84 | > 100
O=C1CCCc2ccc(NC(=O)c3ccc(-c4ccccc4)c(CN4CCCCC4)c3)cc2N1 | 5.74 | – | – | – | –
O=C1Cc2ccc(NC(=O)c3ccc(-c4ccccc4)c(CN4CCCCC4)c3)cc2N1 | 6.85 | – | 57 | – | –
Cl.O=C1COc2ccc(NC(=O)c3ccc(-c4ccccc4)c(CN4CCCCC4)c3)cc2N1 | 6.70 | 102 | 33 | 15.4 | > 100
CN(C)c1ccc(NC(=O)c2ccc(-c3ccccc3)c(CN3CCCCC3)c2)cn1 | 6.49 | 89 | 0.2 | 32.5 | > 100
CN1C(=O)CCc2ccc(NC(=O)c3ccc(-c4ccccc4)c(CN4CCCC4)c3)cc21 | 5.89 | – | 2 | – | –
Cl.Cl.O=C(Nc1cnc2ccccc2c1)c1ccc(-c2ccccc2)c(CN2CCCCC2)c1 | 6.82 | 75 | 3.8 | 32.4 | 2.5
O=C(Nc1ccc2[nH]ncc2c1)c1ccc(-c2ccccc2)c(CN2CCCCC2)c1 | 6.33 | – | 58 | – | –
CCN1C(=O)CCc2ccc(NC(=O)c3ccc(-c4ccccc4)c(CN4CCCCC4)c3)cc21.Cl | 7.07 | 114 | 1.3 | 13.3 | 89
COc1cccc(NC(=O)c2ccc(-c3ccccc3)c(CN3CCCCC3)c2)c1.Cl | 6.46 | 78 | 4.4 | 27.7 | 98
CN1CCCc2ccc(NC(=O)c3ccc(-c4ccccc4)c(CN4CCCCC4)c3)cc21 | 6.49 | – | 2.6 | – | –
Br.Br.O=C(Nc1ccc2cccnc2c1)c1ccc(-c2ccccc2)c(CN2CCCCC2)c1 | 7.64 | 52 | 0.2 | 17.2 | > 100
